Laboratory results published in patent US7692011B2, “8-hydroxy and 8-mercapto quinazolinones” (Prana Biotechnology Limited, priority 2002, dated 2010).
“And” between values parts separate entries of the source, which are not always exact repeats. Equal entries are not always repeated.

Key:
[1] = test system: Aβ from post mortem human AD brain; assay: Assay 9 Human brain amyloid solubilisation assay; format: biochemical; set-up: key: (+): effective at solubilising plaques at more than 1 concentration relative to PBS; (−): not effective at solubilising plaques relative to PBS; conditions: relative to PBS
Experimental: Assay 9. Human Brain Amyloid Solubilisation Assay
This assay was performed in order to assess the ability of a test compound to mobilise Aβ from the insoluble to the soluble phase of an extract of tissue from post mortem human AD brain.
Up to 0.5 g of plaque-bearing cortex without meninges was homogenized using a DIAX 900 homogenizer (Heudolph and Co, Kelheim, Germany) or other suitable device for three 30-second periods at full speed in up to 2 ml of ice-cold phosphate-buffered saline, pH 7.4. To obtain the phosphate-buffered saline-extractable fraction, the homogenate was centrifuged at 100,000×g for 30 min and the supernatant removed. […]
Tris-Tricine polyacrylamide gel electrophoresis was performed by loading appropriately diluted samples on to 10% to 20% gradient gels (Novex, San Diego, Calif.) followed by transfer on to 0.2-μm nitrocellulose membrane (Bio-Rad, Hercules, Calif.). Aβ was detected by using monoclonal antibody W02, which detects residues 5 through 8, 17 (or another suitable antibody) in conjunction with horseradish peroxidase-conjugated rabbit anti-mouse IgG (Dako, Denmark), and visualized by using enhanced chemiluminescence (eg ECL; Amersham Life Science, Buckinghamshire, UK). […]
All samples were analysed several times, and gel loadings and dilutions were adjusted to fit within the quantifiable region of the standard curve. […]

[2] = Assay 16 Determination of mouse plasma levels of test compounds; format: in vivo; conditions: for Conc. in mouse plasma: oral 30 mg/kg
Excerpt: [formula] [formula] [formula] • CLtotal=total plasma clearance after IV administration • Vdβ=volume of distribution during the elimination phase after IV administration • BA=oral bioavailability • AUCIV=area under the plasma concentration versus time profile from time zero to infinity after IV administration • AUCoral=area under the plasma concentration versus time profile from time zero to infinity after oral administration • β=terminal elimination rate constant after IV administration Assay 16 Determination of Mouse Plasma Levels of Test Compounds PBT 1061
Oral administration of PBT 1061 at 30 mg/kg, as a suspension in Na-Carboxymethyl Cellulose (CMC) was administered by oral gavage to four mice. Two mice were sacrificed 30 minutes after administration and two mice were sacrificed 60 minutes after administration. Blood was obtained by cardiac puncture and plasma separated by centrifugation.
The concentration of PBT1061 was determined by LC/MS using the ZQ instrument. The mobile phase consisted of an acetonitrile (ACN)/water gradient (containing 0.05% Formic acid) and the column was a Phenomenex Polar-RP […] 80A (50×2 mm) column.
The mouse plasma samples were directly injected following a protein precipitation with ACN. The analytical method in plasma was linear in the range of 125 to 10,000 ng/ml (R^2=0.9992). Diazepam was used as the internal standard. Recovery of PBT1061 from plasma was ˜100%.
Oral administration of PBT 1063 at 30 mg/kg, as a suspension in Na-Carboxymethyl Cellulose (CMC) was administered by oral gavage to four mice. Two mice were sacrificed 30 minutes after administration and two mice were sacrificed 60 minutes after administration. Blood was obtained by cardiac puncture and plasma separated by centrifugation.
The concentration of PBT1063 was determined by LC/MS using the single quadrupole instrument. The mobile phase consisted of an acetonitrile (ACN)/water gradient (containing 0.05% Formic acid) and the column was a Phenomenex C8 4 μm 80A (50×2 mm) column.
The supplied acute toxicity mouse plasma samples (delivered Feb. 9, 2003) were directly injected following a protein precipitation with ACN. Concentrations were determined by comparison to a calibration curve prepared in rat plasma. The analytical method in plasma was linear in the range of 312 to 10,000 ng/ml (R^2=0.9976). Diazepam was used as the internal standard. Recovery of PBT1063 from plasma was ˜42.9%.

Row | Structure (SMILES) | Assay 9 Brain amyloid solubilisation [1] | Conc. in mouse plasma ([2]; 30 min, individual mouse) | Conc. in mouse plasma ([2]; 60 min, individual mouse) | concentration at 30 min ([2]; mouse, plasma, po, 30 mg/kg, 30 min, individual mouse (Table 2), read-out: Conc. in mouse plasma) | concentration at 60 min ([2]; mouse, plasma, po, 30 mg/kg, 60 min, individual mouse (Table 2), read-out: Conc. in mouse plasma) | Conc. in mouse plasma ([2]; 30 min, individual mouse (Table 2)) | Conc. in mouse plasma ([2]; 60 min, individual mouse (Table 2))
1 | Oc1c(N2CCOCC2)ncc2cccnc12 [PBT-1053, 7-Morpholin-4-yl-[1,6]naphthyridin-8-ol] | (+) | – | – | – | – | – | –
2 | O=c1c2c(Cl)cc(Cl)c(O)c2ncn1C1CC1 [PBT-1061, 5,7-Dichloro-3-cyclopropyl-8-hydroxy-3H-quinazolin-4-one] | (+) | 1826.61 ng/mL and 5475.88 ng/mL | 2417.55 ng/mL and 1115.24 ng/mL | – | – | – | –
3 | O=c1c(-c2ccc(Cl)cc2)cnc2c(O)c(I)ccn12 [PBT-1063, 3-(4-Chlorophenyl)-9-hydroxy-8-iodopyrido[1,2-a]pyrimidin-4-one] | – | – | – | 413 ng/mL | 331 ng/mL | 279.39 ng/mL | 439.49 ng/mL
